Laboratory results: publication PMC11364775, “Ion occupancy of the selectivity filter controls opening of a cytoplasmic gate in the K2P channel TALK-2” (Nature Communications, 2024)

Experiments:
WT TALK-2 channels [1] = biological target: T1, WT TALK-2 channels (Homo sapiens, UniProt Q96T54); test: Conductance-voltage (G-V) curves from tail currents, V1/2 (intracellular Rb+); format: cell-based; design: expressed in transfected cells; host or cells: Xenopus laevis oocytes (cRNA injection), excised inside-out patches; conditions: for Normalized current: TALK-2 WT + 1 mM TPenA
T1 sequence (Q96T54 1-332): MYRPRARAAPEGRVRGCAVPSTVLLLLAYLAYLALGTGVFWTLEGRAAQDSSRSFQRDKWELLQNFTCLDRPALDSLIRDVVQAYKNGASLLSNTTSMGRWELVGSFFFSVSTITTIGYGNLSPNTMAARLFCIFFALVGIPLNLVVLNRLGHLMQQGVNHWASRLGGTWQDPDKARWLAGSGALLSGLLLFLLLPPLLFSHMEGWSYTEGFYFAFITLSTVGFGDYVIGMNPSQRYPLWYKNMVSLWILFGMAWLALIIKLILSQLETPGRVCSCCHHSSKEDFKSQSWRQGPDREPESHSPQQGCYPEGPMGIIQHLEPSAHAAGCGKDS
Source text: The voltage-dependent activation mechanism of the SF gate in K2P channels allows to estimate the electrical work (ΔG = zFΔV1/2) required for pore opening by fitting the G–V curve to a Boltzmann equation. […] The open state represents the situation of both gates being simultaneously open but voltage can only exert force on the SF gate that functions as voltage sensor. […] We further tested whether mutations that open the lower gate (L262A and L264A) would affect the extracellular pH sensitivity. […] We further explored this concept of allosteric coupling using the mutations identified in the functional alanine screen of TM2 and TM4. […]
Conductance-voltage (G–V) relationships were determined from tail currents recorded at a holding potential (VH) of −80 mV after 300 ms depolarizing steps as indicated in the respective figure legend. Data were analyzed with a single Boltzmann fit following Eq. 6:6 GV=Imax/1+e^V−V1/2/slope+Ibase where V1/2 represents the voltage of half-maximal activation, s is the slope factor and Imax and Ibase represent the upper and lower asymptotes. Under appropriate experimental conditions, you can use slope to calculate the valence (charge) of the ion moving across the channel. Slope equals R * T/ z * F where R is the universal gas constant, T is temperature in K, F is the Faraday constant, and z is the valence.

WT TALK-2 channels [2] = biological target: T1, WT TALK-2 channels; test: Pore blocker inhibition (dose-response, residual currents) in inside-out patches at +40 mV; format: cell-based; design: expressed in transfected cells; host or cells: Xenopus laevis oocytes (cRNA injection), excised inside-out patches; conditions: for IC50: IC50 of TPenA inhibition
Procedure: Data shown are the mean ± s.e.m and the number (n) of independent experiments and repeats of representative measurements with similar results is indicated in the figure.
Electrophysiological recordings: Excised patch measurements in inside-out configuration under voltage-clamp conditions were performed at room temperature (22 – 24 °C). Patch pipettes were made from thick-walled borosilicate glass GB 200TF-8P (Science Products, Germany), had resistances of 0.2–0.5 MΩ (tip diameter of 10 - 25 µm) and filled with a pipette solution (in mM): 120 KCl, 10 HEPES and 3.6 CaCl2 (pH 7.0 - 8.5 adjusted with KOH/HCl) or 120 KCl, 10 AMPSO and 3.6 CaCl2 (pH 9.0 - 10.5 adjusted with KOH/HCl). Intracellular bath solutions and compounds were applied to the cytoplasmic side of excised patches for the various K^+ channels via a gravity flow multi-barrel pipette system. Intracellular solution had the following composition (in mM): 120 KCl, 10 HEPES, 2 EGTA and 1 Pyrophosphate (pH adjusted with KOH/HCl). In other intracellular bath solutions, K^+ was replaced by Rb^+ (pH 7.4 adjusted with RbOH/HCl). Currents were recorded with an EPC10 amplifier (HEKA electronics, Germany) and sampled at 10 kHz or higher and filtered with 3 kHz (-3 dB) or higher as appropriate for sampling rate.
Data analysis and statistics were done using Fitmaster (HEKA electronics, version: v2x73.5, Germany), Microsoft Excel 2021 (Microsoft Corporation, USA), and Igor Pro 9 software (WaveMetrics Inc., USA). Recorded currents were analyzed from stable membrane patches at a voltage defined in the respective figure legend or with a voltage protocol as indicated in the respective figure. […] Percentage inhibition or residual currents upon blocker application for a ligand (drug or bioactive lipid) was calculated from stable currents of excised membrane patches using the following Eqs. 2 and 3:2 %inhibition=1−Iinhibited/Ibasal*100 3 Residual current=100−%inhibition where Iinhibited refers to the stable current level recorded in the presence of a given concentration of a drug or bioactive lipid and Ibasal to the measured current before ligand application.

CCCCC[N+](CCCCC)(CCCCC)CCCCC [TPenA, Tetra-pentyl-ammonium chloride]
leftward shift of the G-V curve (WT TALK-2 channels [1]; 1 mM TPenA, intracellular Rb+): 46.1 ± 4.9 mV | Normalized current (WT TALK-2 channels [1]; Voltage 0.000): 0.197 | Normalized current (WT TALK-2 channels [1]; Voltage 0.005): 0.242 | Normalized current (WT TALK-2 channels [1]; Voltage 0.010): 0.308 | Normalized current (WT TALK-2 channels [1]; Voltage 0.015): 0.381 | Normalized current (WT TALK-2 channels [1]; Voltage 0.020): 0.454 | Normalized current (WT TALK-2 channels [1]; Voltage 0.025): 0.532 | Normalized current (WT TALK-2 channels [1]; Voltage 0.030): 0.607 | Normalized current (WT TALK-2 channels [1]; Voltage 0.035): 0.671 | Normalized current (WT TALK-2 channels [1]; Voltage 0.040): 0.728 | Normalized current (WT TALK-2 channels [1]; Voltage 0.045): 0.768 | Normalized current (WT TALK-2 channels [1]; Voltage 0.050): 0.808 | Normalized current (WT TALK-2 channels [1]; Voltage 0.055): 0.838 | Normalized current (WT TALK-2 channels [1]; Voltage 0.060): 0.865 | Normalized current (WT TALK-2 channels [1]; Voltage 0.065): 0.890 | Normalized current (WT TALK-2 channels [1]; Voltage 0.070): 0.906 | Normalized current (WT TALK-2 channels [1]; Voltage 0.075): 0.928 | Normalized current (WT TALK-2 channels [1]; Voltage 0.080): 0.937 | Normalized current (WT TALK-2 channels [1]; Voltage 0.085): 0.948 | Normalized current (WT TALK-2 channels [1]; Voltage 0.090): 0.958 | Normalized current (WT TALK-2 channels [1]; Voltage 0.095): 0.967 | Normalized current (WT TALK-2 channels [1]; Voltage 0.100): 0.967 | Normalized current (WT TALK-2 channels [1]; Voltage 0.105): 0.966 | Normalized current (WT TALK-2 channels [1]; Voltage 0.110): 0.976 | Normalized current (WT TALK-2 channels [1]; Voltage 0.115): 0.977 | Normalized current (WT TALK-2 channels [1]; Voltage 0.120): 0.974 | Normalized current (WT TALK-2 channels [1]; Voltage 0.125): 0.985 | Normalized current (WT TALK-2 channels [1]; Voltage 0.130): 0.971 | Normalized current (WT TALK-2 channels [1]; Voltage 0.135): 0.973 | Normalized current (WT TALK-2 channels [1]; Voltage 0.140): 0.960 | Normalized current (WT TALK-2 channels [1]; Voltage 0.145): 0.967 | Normalized current (WT TALK-2 channels [1]; Voltage 0.150): 0.968 | Normalized current (WT TALK-2 channels [1]; Voltage 0.155): 0.943 | Normalized current (WT TALK-2 channels [1]; Voltage 0.160): 0.968 | Normalized current (WT TALK-2 channels [1]; Voltage -0.005): 0.160 | Normalized current (WT TALK-2 channels [1]; Voltage -0.010): 0.136 | Normalized current (WT TALK-2 channels [1]; Voltage -0.015): 0.121 | Normalized current (WT TALK-2 channels [1]; Voltage -0.020): 0.109 | Normalized current (WT TALK-2 channels [1]; Voltage -0.025): 0.102 | Normalized current (WT TALK-2 channels [1]; Voltage -0.030): 0.098 | Normalized current (WT TALK-2 channels [1]; Voltage -0.035): 0.094 | Normalized current (WT TALK-2 channels [1]; Voltage -0.040): 0.089 | Normalized current (WT TALK-2 channels [1]; Voltage -0.045): 0.087 | Normalized current (WT TALK-2 channels [1]; Voltage -0.050): 0.085 | Normalized current (WT TALK-2 channels [1]; Voltage -0.055): 0.083 | Normalized current (WT TALK-2 channels [1]; Voltage -0.060): 0.079 | Normalized current (WT TALK-2 channels [1]; Voltage -0.065): 0.079 | Normalized current (WT TALK-2 channels [1]; Voltage -0.070): 0.079 | Normalized current (WT TALK-2 channels [1]; Voltage -0.075): 0.077 | Normalized current (WT TALK-2 channels [1]; Voltage -0.080): 0.077 | Normalized current (WT TALK-2 channels [1]; Voltage -0.085): 0.078 | Normalized current (WT TALK-2 channels [1]; Voltage -0.090): 0.077 | Normalized current (WT TALK-2 channels [1]; Voltage -0.095): 0.078 | Normalized current (WT TALK-2 channels [1]; Voltage -0.100): 0.076 | Normalized current (WT TALK-2 channels [1]; Voltage -0.105): 0.077 | Normalized current (WT TALK-2 channels [1]; Voltage -0.110): 0.079 | Normalized current (WT TALK-2 channels [1]; Voltage -0.115): 0.077 | Normalized current (WT TALK-2 channels [1]; Voltage -0.120): 0.077 | V1/2 (WT TALK-2 channels [1]; TALK-2 WT, 1 mM ligand): 25.5 mV | IC50 (WT TALK-2 channels [2]; 0.2 mM 2-APB, n = 7, legend of Fig. 5e): 778 ± 116 µM | IC50 (WT TALK-2 channels [2]; 0.5 mM 2-APB, n = 5, legend of Fig. 5e): 215 ± 28 µM | IC50 (WT TALK-2 channels [2]; 1.0 mM 2-APB, n = 16, legend of Fig. 5e): 54 ± 10 µM | IC50 (WT TALK-2 channels [2]; pre-activated with 0.2 mM 2-APB, +40 mV): 1110 ± 411 µM | IC50 (WT TALK-2 channels [2]; pre-activated with 0.5 mM 2-APB, +40 mV): 225 ± 25 µM | Normalized currents (WT TALK-2 channels [2]; TALK-2 WT + 0.2 mM 2-APB, 1 µM TPenA): 1.00 | Normalized currents (WT TALK-2 channels [2]; TALK-2 WT + 0.2 mM 2-APB, 10 µM TPenA): 0.87 | Normalized currents (WT TALK-2 channels [2]; TALK-2 WT + 0.2 mM 2-APB, 100 µM TPenA): 0.81 | Normalized currents (WT TALK-2 channels [2]; TALK-2 WT + 0.2 mM 2-APB, 1000 µM TPenA): 0.47 | Normalized currents (WT TALK-2 channels [2]; TALK-2 WT + 0.2 mM 2-APB, 10000 µM TPenA): 0.15 | Normalized currents (WT TALK-2 channels [2]; TALK-2 WT + 0.5 mM 2-APB, 1 µM TPenA): 1.02 | Normalized currents (WT TALK-2 channels [2]; TALK-2 WT + 0.5 mM 2-APB, 10 µM TPenA): 0.89 | Normalized currents (WT TALK-2 channels [2]; TALK-2 WT + 0.5 mM 2-APB, 100 µM TPenA): 0.63 | Normalized currents (WT TALK-2 channels [2]; TALK-2 WT + 0.5 mM 2-APB, 1000 µM TPenA): 0.25 | Normalized currents (WT TALK-2 channels [2]; TALK-2 WT + 0.5 mM 2-APB, 10000 µM TPenA): 0.08 | Normalized currents (WT TALK-2 channels [2]; TALK-2 WT + 1.0 mM 2-APB, 1 µM TPenA): 1.00 | Normalized currents (WT TALK-2 channels [2]; TALK-2 WT + 1.0 mM 2-APB, 10 µM TPenA): 0.87 | Normalized currents (WT TALK-2 channels [2]; TALK-2 WT + 1.0 mM 2-APB, 100 µM TPenA): 0.33 | Normalized currents (WT TALK-2 channels [2]; TALK-2 WT + 1.0 mM 2-APB, 1000 µM TPenA): 0.07 | Normalized currents (WT TALK-2 channels [2]; TALK-2 WT + 1.0 mM 2-APB, 2000 µM TPenA): 0.06 | Normalized currents (WT TALK-2 channels [2]; TALK-2 WT + 1.0 mM 2-APB, 5000 µM TPenA): 0.06 | Normalized currents (WT TALK-2 channels [2]; TALK-2 WT + 1.0 mM 2-APB, 10000 µM TPenA): 0.01 | Residual currents with 1 mM TPenA (WT TALK-2 channels [2]; TALK-2 WT unstimulated, +40 mV): 101.31% | Residual currents with 1 mM TPenA (WT TALK-2 channels [2]; TALK-2 WT, 0.2 mM 2-APB, +40 mV): 47.38% | Residual currents with 1 mM TPenA (WT TALK-2 channels [2]; TALK-2 WT, 0.5 mM 2-APB, +40 mV): 25.47% | Residual currents with 1 mM TPenA (WT TALK-2 channels [2]; TALK-2 WT, 1.0 mM 2-APB, +40 mV): 6.78% | Normalized currents (WT TALK-2 channels [2]; TALK-2 WT, 1 µM TPenA): 0.98 | Normalized currents (WT TALK-2 channels [2]; TALK-2 WT, 10 µM TPenA): 0.97 | Normalized currents (WT TALK-2 channels [2]; TALK-2 WT, 100 µM TPenA): 0.95 | Normalized currents (WT TALK-2 channels [2]; TALK-2 WT, 1000 µM TPenA): 0.95 | Normalized currents (WT TALK-2 channels [2]; TALK-2 WT, 5000 µM TPenA): 0.98 | Normalized currents (WT TALK-2 channels [2]; TALK-2 WT, 10000 µM TPenA): 0.99 | TPenA block in the basal state (WT TALK-2 channels [2]; basal state (low PO), 1.0 mM TPenA): hardly any TPenA block
